ChEMBL document CHEMBL6109088 (J Med Chem, 2025)

Tests used:
[1] = tested on: SARS-CoV-2; assay: microbe, parasite or virus in culture; details: Severe acute respiratory syndrome coronavirus 2, USA-WA1/2020, Vero C1008
[2] = in vitro; details: dog, MDCK
[3] = in vitro; details: human, liver microsomes
[4] = in vivo; details: rat, po
[5] = in vivo; details: male, Beagle, dog, po, 10 mg/kg
[6] = in vivo; details: male, Wistar Hannover, rat, iv, 1 mg/kg
[7] = in vivo; details: male, Wistar Hannover, rat, iv, 1 mg/kg; remark: listed apart in the source
[8] = in vivo; details: male, cynomolgus monkey, po, 10 mg/kg
[9] = in vivo; details: male, Wistar Hannover, rat, po, 10 mg/kg
[10] = in vivo; details: male, cynomolgus monkey, po, 10 mg/kg; remark: listed apart in the source
[11] = in vivo; details: male, Wistar Hannover, rat, po, 10 mg/kg; remark: listed apart in the source
[12] = in vivo; details: male, Wistar Hannover, rat, iv, 1 mg/kg; remark: listed apart in the source
[13] = in vivo; details: male, Beagle, dog, po, 10 mg/kg; remark: listed apart in the source
[14] = in vivo; details: male, Beagle, dog, iv, 1 mg/kg
[15] = in vivo; details: male, cynomolgus monkey, iv, 1 mg/kg
[16] = in vivo; details: male, Wistar Hannover, rat, po, 10 mg/kg; remark: listed apart in the source
[17] = in vivo; details: male, Beagle, dog, po, 10 mg/kg; remark: listed apart in the source
[18] = in vivo; details: male, cynomolgus monkey, plasma, iv, 1 mg/kg
[19] = in vivo; details: male, cynomolgus monkey, po, 10 mg/kg; remark: listed apart in the source
[20] = in vivo; details: male, cynomolgus monkey, iv, 1 mg/kg; remark: listed apart in the source
[21] = in vivo; details: male, Wistar Hannover, rat, iv, 1 mg/kg; remark: listed apart in the source
[22] = in vivo; details: male, cynomolgus monkey, iv, 1 mg/kg; remark: listed apart in the source
[23] = in vivo; details: male, Beagle, dog, iv, 1 mg/kg; remark: listed apart in the source
[24] = physchem; details: octanol/water
[25] = in vivo; details: male, Wistar Hannover, rat, po, 10 mg/kg; remark: listed apart in the source
[26] = in vivo; details: male, Wistar Hannover, rat, po, 10 mg/kg; remark: listed apart in the source
[27] = in vivo; details: male, cynomolgus monkey, po, 10 mg/kg; remark: listed apart in the source
[28] = in vivo; details: male, Wistar Hannover, rat, plasma, iv, 1 mg/kg
[29] = in vivo; details: male, Beagle, dog, plasma, iv, 1 mg/kg
[30] = in vivo; details: male, Wistar Hannover, rat, po, 10 mg/kg; remark: listed apart in the source
[31] = in vivo; details: male, cynomolgus monkey, po, 10 mg/kg; remark: listed apart in the source
[32] = in vivo; details: male, Wistar Hannover, rat, po, 10 mg/kg; remark: listed apart in the source
[33] = in vivo; details: male, cynomolgus monkey, iv, 1 mg/kg; remark: listed apart in the source
[34] = in vivo; details: male, cynomolgus monkey, iv, 1 mg/kg; remark: listed apart in the source
[35] = in vivo; details: male, Wistar Hannover, rat, po, 10 mg/kg; remark: listed apart in the source
[36] = in vivo; details: male, cynomolgus monkey, plasma, iv, 1 mg/kg; remark: listed apart in the source
[37] = in vivo; details: male, Wistar Hannover, rat, po, 100 mg/kg
[38] = in vivo; details: male, Wistar Hannover, rat, plasma, iv, 1 mg/kg; remark: listed apart in the source
[39] = in vivo; details: male, Wistar Hannover, rat, po, 10 mg/kg; remark: listed apart in the source
[40] = in vivo; details: male, Wistar Hannover, rat, po, 100 mg/kg; remark: listed apart in the source
[41] = in vivo; details: male, Wistar Hannover, rat, po, 100 mg/kg; remark: listed apart in the source
[42] = in vivo; details: male, Wistar Hannover, rat, po, 10 mg/kg; remark: listed apart in the source
[43] = in vivo; details: male, cynomolgus monkey, po, 100 mg/kg
[44] = in vivo; details: male, cynomolgus monkey, po, 100 mg/kg; remark: listed apart in the source
[45] = in vivo; details: male, Wistar Hannover, rat, iv, 1 mg/kg; remark: listed apart in the source
[46] = in vivo; details: male, cynomolgus monkey, po, 100 mg/kg; remark: listed apart in the source
[47] = in vivo; details: male, Wistar Hannover, rat, po, 10 mg/kg; remark: listed apart in the source
[48] = in vivo; details: male, Wistar Hannover, rat, po, 10 mg/kg; remark: listed apart in the source
[49] = in vivo; details: male, Wistar Hannover, rat, iv, 1 mg/kg; remark: listed apart in the source
[50] = in vivo; details: male, cynomolgus monkey, po, 100 mg/kg; remark: listed apart in the source
[51] = in vivo; details: male, cynomolgus monkey, po, 10 mg/kg; remark: listed apart in the source
[52] = in vivo; details: male, Wistar Hannover, rat, po, 100 mg/kg; remark: listed apart in the source
[53] = in vivo; details: male, Wistar Hannover, rat, po, 10 mg/kg; remark: listed apart in the source
[54] = in vivo; details: male, cynomolgus monkey, iv, 1 mg/kg; remark: listed apart in the source
[55] = in vivo; details: male, Wistar Hannover, rat, po, 100 mg/kg; remark: listed apart in the source
[56] = in vivo; details: male, Wistar Hannover, rat, po, 100 mg/kg; remark: listed apart in the source
[57] = in vivo; details: male, cynomolgus monkey, po, 100 mg/kg; remark: listed apart in the source
[58] = in vivo; details: male, cynomolgus monkey, po, 10 mg/kg; remark: listed apart in the source
[59] = in vivo; details: male, cynomolgus monkey, po, 100 mg/kg; remark: listed apart in the source

CC(C)[C@H](NC(=O)C(F)(F)F)C(=O)N1C[C@H]2[C@@H]([C@H]1C(=O)N[C@@H](C[C@@H]1CCNC1=O)C(=O)c1nc3ccccc3o1)C2(C)C
EC50 [1]: 0.207 µM | Papp A→B [2]: 2.1 ×10⁻⁶ cm/s | microsomal CLint [3]: 7.3 µL/min/mg | bioavailability [4]: 18%

CC(C)[C@H](NC(=O)C(F)(F)F)C(=O)N1C[C@H]2[C@@H]([C@H]1C(=O)N[C@@H](C[C@@H]1CCNC1=O)C(=O)c1nc3ccccc3s1)C2(C)C
half-life [5]: 4.43 h | Vd at 4 h [6]: 2.16 L/kg | half-life at 4 h [7]: 6.8 h | Cmax [8]: 331 ng/mL | EC50 [1]: 0.0853 µM | Papp A→B [2]: 13.1 ×10⁻⁶ cm/s | AUC(0-inf) at 4 h [9]: 2310 ng·h/mL | bioavailability [10]: 7.85% | bioavailability at 4 h [11]: 54.3% | AUC(0-inf) at 4 h [12]: 538 ng·h/mL | Tmax [13]: 0.75 h | half-life [14]: 0.9 h | Vd [15]: 0.58 L/kg | Cmax at 4 h [16]: 521 ng/mL | Cmax [17]: 383 ng/mL | clearance [18]: 26 mL/min/kg | AUC(0-inf) [19]: 505 ng·h/mL | microsomal CLint [3]: 30.3 µL/min/mg | half-life [20]: 1.08 h | bioavailability [4]: 54% | AUC(0-inf) at 4 h [21]: 632 ng·h/mL | AUC(0-inf) [22]: 977 ng·h/mL | Vd [23]: 1.1 L/kg | logD [24]: 3 | Tmax at 4 h [25]: 0.67 h | half-life at 4 h [26]: 3.39 h | Tmax [27]: 1.5 h | clearance at 4 h [28]: 31 mL/min/kg | clearance [29]: 20.7 mL/min/kg

CC(=O)N[C@H](C(=O)N1C[C@H]2[C@@H]([C@H]1C(=O)N[C@@H](C[C@@H]1CCNC1=O)C(=O)c1nc3ccccc3s1)C2(C)C)C(C)(C)C
EC50 [1]: 0.702 µM | Papp A→B [2]: 0.7 ×10⁻⁶ cm/s | microsomal CLint [3]: 27 µL/min/mg | logD [24]: 2.4

CC(=O)N[C@H](C(=O)N1C[C@H]2[C@@H]([C@H]1C(=O)N[C@H](C#N)C[C@@H]1CCNC1=O)C2(C)C)C(C)(C)C
EC50 [1]: 5.31 µM | Papp A→B [2]: < 0.302 ×10⁻⁶ cm/s | microsomal CLint [3]: < 7 µL/min/mg | bioavailability [4]: 2.8%

COc1cccc2[nH]c(C(=O)N3C[C@H]4[C@@H]([C@H]3C(=O)N[C@@H](C[C@@H]3CCNC3=O)C(=O)c3nc5ccccc5s3)C4(C)C)cc12
EC50 [1]: 5.59 µM | Papp A→B [2]: 7.3 ×10⁻⁶ cm/s | microsomal CLint [3]: 337 µL/min/mg | logD [24]: 4.2

COc1cccc2[nH]c(C(=O)N[C@@H](CC(C)C)C(=O)N[C@@H](C[C@@H]3CCNC3=O)C(=O)CO)cc12 [PF-00835231]
Papp A→B [2]: < 0.207 ×10⁻⁶ cm/s | microsomal CLint [3]: 7 µL/min/mg | bioavailability [4]: < 0.5% | logD [24]: 1.7

CC(C)[C@H](NS(C)(=O)=O)C(=O)N1C[C@H]2[C@@H]([C@H]1C(=O)N[C@@H](C[C@@H]1CCNC1=O)C(=O)c1nc3ccccc3s1)C2(C)C
EC50 [1]: 0.909 µM | Papp A→B [2]: 1.7 ×10⁻⁶ cm/s | microsomal CLint [3]: 70 µL/min/mg | bioavailability [4]: 7% | logD [24]: 2.4

COc1cccc2[nH]c(C(=O)N[C@@H](CC(C)(C)C)C(=O)N[C@@H](C[C@@H]3CCNC3=O)C(=O)c3nc4ccccc4s3)cc12
EC50 [1]: 0.383 µM | Papp A→B [2]: 4.3 ×10⁻⁶ cm/s | microsomal CLint [3]: 350 µL/min/mg | bioavailability [4]: < 1% | logD [24]: 4

CC(C)(C)[C@H](NC(=O)C(F)(F)F)C(=O)N1C[C@H]2[C@@H]([C@H]1C(=O)N[C@H](C#N)C[C@@H]1CCNC1=O)C2(C)C
bioavailability at 4 h [30]: 50% | Cmax [31]: 1450 ng/mL | half-life at 4 h [32]: 2.8 h | AUC(0-inf) [33]: 977 ng·h/mL | Vd [34]: 0.33 L/kg | Papp A→B [2]: 1.71 ×10⁻⁶ cm/s | Cmax at 4 h [35]: 1290 ng/mL | clearance [36]: 17.1 mL/min/kg | AUC(0-inf) at 4 h [37]: 18000 ng·h/mL | clearance at 4 h [38]: 27.2 mL/min/kg | Tmax at 4 h [39]: 1.5 h | bioavailability at 4 h [40]: 108% | Tmax at 4 h [41]: 0.75 h | AUC(0-inf) at 4 h [42]: 2170 ng·h/mL | Tmax [43]: 0.5 h | Cmax [44]: 16300 ng/mL | half-life at 4 h [45]: 5.1 h | AUC(0-inf) [46]: 37200 ng·h/mL | half-life at 4 h [47]: 4 h | microsomal CLint [3]: 24.5 µL/min/mg | AUC(0-inf) at 4 h [48]: 3190 ng·h/mL | Vd at 4 h [49]: 1.8 L/kg | AUC(0-inf) [50]: 4400 ng·h/mL | AUC(0-t) [51]: 831 ng·h/mL | AUC(0-inf) at 4 h [52]: 68300 ng·h/mL | Cmax at 4 h [53]: 1450 ng/mL | half-life [54]: 0.79 h | bioavailability at 4 h [55]: 29% | Tmax at 4 h [56]: 1.4 h | Tmax [57]: 1 h | bioavailability [58]: 8.5% | Cmax [59]: 1560 ng/mL
